# Target: T1, purified STEP46 enzyme (Homo sapiens, UniProt P54829)
# T1 sequence (P54829 197-565 limits assumed): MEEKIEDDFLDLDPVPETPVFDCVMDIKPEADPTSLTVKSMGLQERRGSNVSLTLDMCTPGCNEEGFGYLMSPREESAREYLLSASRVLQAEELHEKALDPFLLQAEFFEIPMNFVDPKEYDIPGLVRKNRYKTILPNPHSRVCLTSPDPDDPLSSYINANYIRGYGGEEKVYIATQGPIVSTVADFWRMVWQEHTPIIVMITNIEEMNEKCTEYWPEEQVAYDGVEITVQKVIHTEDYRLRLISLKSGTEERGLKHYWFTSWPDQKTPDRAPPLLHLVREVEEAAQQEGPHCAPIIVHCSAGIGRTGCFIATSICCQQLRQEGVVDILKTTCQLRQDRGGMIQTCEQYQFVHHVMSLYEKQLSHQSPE
# Assay: STEP46 biochemical assay (DiFMUP fluorescence phosphatase assay)
# Conditions: DiFMUP 10 μM, read-out: STEP IC50
# Protocol: Serial dilutions of compounds were performed in 100% DMSO and 1 uL of compounds were dispensed into 384-well black polystyrene plates (Corning, N.Y.). Compounds were incubated with 24 uL of buffer containing 50 mM Hepes, 1 mM DTT, 0.02% Brij35, 1 ng/well purified STEP46 enzyme for […] at room temperature. The reaction was initiated by addition of 25 uL of DiFMUP (6,8-difluoro-4-methylumbelliferyl phosphate) (InVitrogen, CA) with a final concentration of 10 μM and incubated at 27° C. for 90 mM Final DMSO concentration is 2%. Plates were read with florescence intensity at excitation/emission of 360/460 nm using a PheraStar plate reader (BMG Labtech, NC).
# Data were expressed as percentage (%) inhibition of enzyme activity. 0% inhibition is defined as the RFUs (relative fluorescence units) in the absence of compounds and 100% inhibition is defined as RFUs in the absence of STEP46 enzyme. IC50 values of compounds with inhibitory activity against STEP46 were determined by GraphPad Prism (version 4.03) using four parameter logistic equation. Some compounds act as activators. For compounds showing STEP46 enzymatic activation, data are represented as percentage of inhibition but with negative values at three representative concentrations (25, 50 and 100 uM).
row,SMILES,IC50 [nM]
1,COc1ccc2nc(-c3cccnc3)nc(N3CCc4ccc(Cl)cc43)c2c1 [Compound 4],1000 to 10000
2,CCOc1ccc2nc(-c3cccnc3)nc(N3CCc4ccc(Cl)cc43)c2c1 [Compound 5],1000 to 10000
3,COc1ccc2nc(-c3cccnc3)nc(N3CCc4cc(Br)ccc43)c2c1 [Compound 6],> 10000
4,Cc1ccc2c(c1)CCN2c1nc(-c2cccnc2)nc2cc(Br)ccc12 [Compound 16],1000 to 10000
5,Brc1ccc2nc(-c3cccnc3)nc(N3CCc4ccccc43)c2c1 [Compound 19],1000 to 10000
6,Cc1ccc2c(c1)N(c1nc(-c3cccnc3)nc3ccc(Br)cc13)CC2 [Compound 20],1000 to 10000
7,Clc1ccc2c(c1)N(c1nc(-c3cccnc3)nc3ccc(Br)cc13)CC2 [Compound 23],1000 to 10000
8,COc1ccc2nc(-c3cccnc3)nc(Nc3ccc(F)cn3)c2c1 [Compound 24],1000 to 10000
9,COc1ccc2nc(-c3cccnc3)nc(Nc3cncc(F)c3)c2c1 [Compound 25],1000 to 10000
10,COc1ccc2nc(-c3cccnc3)nc(Nc3cc(F)ccn3)c2c1 [Compound 31],1000 to 10000
11,COc1ccc2nc(-c3cccnc3)nc(Nc3cccc(F)n3)c2c1 [Compound 32],> 10000
12,CCc1nc2ccc(Nc3nc(-c4cccnc4)nc4ccc(OC)cc34)cc2o1 [Compound 40],> 10000
13,COc1ccc2nc(-c3cccnc3)nc(Nc3ccnc(F)c3)c2c1 [Compound 43],< 1000
14,"COc1ccc2nc(-c3cccnc3)nc(Nc3cc(Cl)ccn3)c2c1 [Compound 45, N-(4-chloropyridin-2-yl)-6-methoxy-2-(pyridin-3-yl)quinazolin-4-amine]",> 10000
15,COc1ccc2nc(-c3cccnc3)nc(Nc3ccc(C#N)cn3)c2c1 [Compound 46],1000 to 10000
16,Fc1cncc(Nc2nc(-c3cccnc3)nc3cc(Cl)ccc23)c1 [Compound 50],1000 to 10000
17,COc1ccc2c(Nc3ccc(C)cn3)nc(-c3cccnc3)nc2c1 [Compound 55],1000 to 10000
18,CCOc1ccc2nc(-c3cccnc3)nc(Nc3ccc(C)cn3)c2c1 [Compound 56],1000 to 10000
19,Cc1ccc(Nc2nc(-c3cccnc3)nc3ccc(Cl)cc23)nc1 [Compound 57],1000 to 10000
20,CCOc1ccc2nc(-c3cccnc3)nc(Nc3cncc(C)c3)c2c1 [Compound 65],1000 to 10000
21,CCOc1ccc2nc(-c3cccnc3)nc(Nc3cncc(Cl)c3)c2c1 [Compound 69],< 1000
22,Clc1cncc(Nc2nc(-c3cccnc3)nc3ccc(Cl)cc23)c1 [Compound 70],< 1000
23,CCOc1ccc2nc(-c3ccnnc3)nc(Nc3ccccc3C(N)=O)c2c1 [Compound 71],1000 to 10000

row,SMILES,IC50 [nM]
1,Fc1ccc(-c2ccc3nc(-c4cccnc4)nc(N4CCc5cc(Cl)ccc54)c3c2)c(F)c1 [Compound 72],1000 to 10000
2,Cc1ccc2c(c1)CCN2c1nc(-c2cccnc2)nc2ccc(-c3cccc(F)c3F)cc12 [Compound 74],1000 to 10000
3,Fc1cccc(-c2ccc3nc(-c4cccnc4)nc(N4CCc5cc(Cl)ccc54)c3c2)c1F [Compound 75],1000 to 10000
4,Clc1ccc2c(c1)CCN2c1nc(-c2cccnc2)nc2ccc(-c3ccc4c(c3)OCO4)cc12 [Compound 76],1000 to 10000
5,Cc1ccc2c(c1)CCN2c1nc(-c2cccnc2)nc2ccc(-c3ccc(F)cc3)cc12 [Compound 79],1000 to 10000
6,Cc1ccc2c(c1)CCN2c1nc(-c2cccnc2)nc2ccc(-c3cc(F)cc(F)c3)cc12 [Compound 80],> 10000
7,O=[N+]([O-])c1ccc2c(c1)CCN2c1nc(-c2cccnc2)nc2ccc(-c3cccc(F)c3F)cc12 [Compound 83],< 1000
8,Fc1ccc(-c2ccc3nc(-c4cccnc4)nc(N4CCc5cc(Cl)ccc54)c3c2)cc1 [Compound 86],1000 to 10000
9,COc1ccc2c(c1)CCN2c1nc(-c2cccnc2)nc2ccc(-c3ccc(F)cc3)cc12 [Compound 90],< 1000
10,Fc1ccc(-c2ccc3nc(-c4cccnc4)nc(N4CCc5cc(F)ccc54)c3c2)cc1 [Compound 91],1000 to 10000
11,Fc1ccc(-c2ccc3c(N4CCc5cc(Cl)ccc54)nc(-c4cccnc4)nc3c2)c(F)c1 [Compound 94],1000 to 10000
12,Fc1ccccc1-c1ccc2c(N3CCc4cc(Cl)ccc43)nc(-c3cccnc3)nc2c1 [Compound 95],1000 to 10000
13,Fc1cccc(-c2ccc3c(N4CCc5cc(Cl)ccc54)nc(-c4cccnc4)nc3c2)c1 [Compound 96],1000 to 10000
14,Fc1ccc(-c2ccc3c(N4CCc5cc(Cl)ccc54)nc(-c4cccnc4)nc3c2)cc1 [Compound 97],1000 to 10000
15,Clc1ccc2c(c1)CCN2c1nc(-c2cccnc2)nc2cc(-c3cccnc3)ccc12 [Compound 99],< 1000
16,Clc1ccc2c(c1)CCN2c1nc(-c2cccnc2)nc2cc(-c3cncnc3)ccc12 [Compound 101],< 1000
17,CC(=O)Nc1cccc(-c2ccc3c(N4CCc5cc(Cl)ccc54)nc(-c4cccnc4)nc3c2)c1 [Compound 102],1000 to 10000
18,Fc1ccc(-c2ccc3c(N4CCc5ccccc54)nc(-c4cccnc4)nc3c2)c(F)c1 [Compound 103],1000 to 10000
19,O=[N+]([O-])c1ccc2c(c1)CCN2c1nc(-c2cccnc2)nc2cc(-c3ccc(F)cc3F)ccc12 [Compound 104],< 1000
20,O=[N+]([O-])c1ccc2c(c1)CCN2c1nc(-c2cccnc2)nc2cc(-c3cccnc3)ccc12 [Compound 106],< 1000
21,Fc1cccc(-c2ccc3c(N4CCc5cc(Cl)ccc54)nc(-c4cccnc4)nc3c2)c1F [Compound 108],1000 to 10000
22,Clc1ccc2c(c1)CCN2c1nc(-c2cccnc2)nc2cc(-c3ccccc3Cl)ccc12 [Compound 111],> 10000
23,Cc1c(-c2cccnc2)ccc2c(N3CCc4cc(Cl)ccc43)nc(-c3cccnc3)nc12 [Compound 114],< 1000

# Now from value to compound:
row,IC50 [nM],SMILES
1,1000 to 10000,COc1ccc2c(N3CCc4cc(Cl)ccc43)nc(-c3cccnc3)nc2c1 [Compound 12]
2,1000 to 10000,Clc1ccc2c(c1)CCN2c1nc(-c2cccnc2)nc2cc(Br)ccc12 [Compound 14]
3,> 10000,COc1ccc2c(c1)CCN2c1nc(-c2cccnc2)nc2ccc(Br)cc12 [Compound 21]
4,1000 to 10000,Fc1ccc2c(c1)N(c1nc(-c3cccnc3)nc3ccc(Br)cc13)CC2 [Compound 22]
5,1000 to 10000,COc1ccc2nc(-c3cccnc3)nc(Nc3ccc(F)nc3)c2c1 [Compound 35]
6,1000 to 10000,COc1ccc2nc(-c3cccnc3)nc(Nc3ccc4nc(C)oc4c3)c2c1 [Compound 39]
7,1000 to 10000,COc1ccc2nc(-c3cccnc3)nc(-n3ccc4cccnc43)c2c1 [Compound 41]
8,1000 to 10000,CCOc1ccc2nc(-c3cccnc3)nc(Nc3cncc(F)c3)c2c1 [Compound 47]
9,1000 to 10000,Fc1cncc(Nc2nc(-c3cccnc3)nc3ccc(Cl)cc23)c1 [Compound 48]
10,1000 to 10000,Fc1ccc(Nc2nc(-c3cccnc3)nc3cc(Cl)ccc23)nc1 [Compound 52]
11,1000 to 10000,Clc1ccc2nc(-c3cccnc3)nc(N3CCc4cccnc43)c2c1 [Compound 61]
12,1000 to 10000,Clc1ccc2c(N3CCc4cccnc43)nc(-c3cccnc3)nc2c1 [Compound 62]
13,1000 to 10000,Cc1cncc(Nc2nc(-c3cccnc3)nc3ccc(Cl)cc23)c1 [Compound 66]
14,1000 to 10000,CCOc1ccc2nc(-c3cccnc3)nc(Nc3cc(C)c(F)cn3)c2c1 [Compound 67]
15,1000 to 10000,Cc1ccc2c(c1)CCN2c1nc(-c2cccnc2)nc2ccc(-c3ccc(F)cc3F)cc12 [Compound 73]
16,1000 to 10000,Cc1ccc2c(c1)CCN2c1nc(-c2cccnc2)nc2ccc(-c3cccc(F)c3)cc12 [Compound 78]
17,1000 to 10000,Cc1ccc2c(c1)CCN2c1nc(-c2cccnc2)nc2ccc(-c3ccc(C#N)cc3)cc12 [Compound 81]
18,1000 to 10000,O=[N+]([O-])c1cccc(-c2ccc3nc(-c4cccnc4)nc(N4CCc5cc(Cl)ccc54)c3c2)c1 [Compound 82]
19,< 1000,O=[N+]([O-])c1ccc2c(c1)CCN2c1nc(-c2cccnc2)nc2ccc(-c3ccc(F)cc3)cc12 [Compound 87]
20,1000 to 10000,Fc1ccc(-c2ccc3nc(-c4cccnc4)nc(N4CCc5ccccc54)c3c2)cc1 [Compound 88]
21,1000 to 10000,Fc1ccc(-c2ccc3nc(-c4cccnc4)nc(N4CCc5ccc(Cl)cc54)c3c2)cc1 [Compound 93]
22,1000 to 10000,Cc1ccc2c(c1)CCN2c1nc(-c2cccnc2)nc2cc(-c3cc(F)ccc3F)ccc12 [Compound 98]
23,1000 to 10000,Clc1ccc2c(c1)CCN2c1nc(-c2cccnc2)nc2cc(-c3ccncc3)ccc12 [Compound 100]
24,1000 to 10000,Fc1ccc(F)c(-c2ccc3c(N4CCc5cc(Cl)ccc54)nc(-c4cccnc4)nc3c2)c1 [Compound 109]
25,< 1000,COc1cc(F)ccc1-c1ccc2c(N3CCc4cc(Cl)ccc43)nc(-c3cccnc3)nc2c1 [Compound 110]
